Assay results published in patent publication US20040254162A1, “Oxazolidinone derivatives as antimicrobials” (priority 2001, published 2004).
≈ marks a conversion by molar mass, not a printed value. Where “and” joins values, the source holds several entries; their conditions need not be identical. Identical values can stand only once.

What was measured:
[1] = system: anaerobic bacteria; test: Agar dilution method for anaerobic bacteria, summary; assay type: cell-based; conditions: anaerobes
[2] = system: Clostridium camis; test: Agar dilution MIC, anaerobes; assay type: cell-based; conditions: single isolates, anaerobic agar dilution
[3] = system: Clostridium perfringens; test: microbe, parasite or virus in culture; assay type: cell-based; conditions: single isolates, anaerobic agar dilution
[4] = system: Clostridium difficile; test: Agar dilution MIC, anaerobes; assay type: cell-based; conditions: single isolates, anaerobic agar dilution
[5] = system: Bacteroides fragilis; test: Agar dilution MIC, anaerobes; assay type: cell-based; conditions: single isolates, anaerobic agar dilution; listed as Quin/dal
[6] = system: Prevotella (Bacteroides) disiens; test: Agar dilution MIC, anaerobes; assay type: cell-based; conditions: single isolates, anaerobic agar dilution; listed as Quin/dal
[7] = system: Prevotella bivia; test: Agar dilution MIC, anaerobes; assay type: cell-based; conditions: single isolate, anaerobic agar dilution
[8] = system: Prevotella intermedia; test: Agar dilution MIC, anaerobes; assay type: cell-based; conditions: single isolates, anaerobic agar dilution
[9] = system: Prevotella melaninogenica; test: Agar dilution MIC, anaerobes; assay type: cell-based; conditions: single isolates, anaerobic agar dilution; listed as Quin/dal
[10] = system: Porphyromonas asaccharolytica; test: Agar dilution MIC, anaerobes; assay type: cell-based; conditions: single isolate, anaerobic agar dilution
[11] = system: Fusobacterium montiferum; test: Agar dilution MIC, anaerobes; assay type: cell-based; conditions: single isolates, anaerobic agar dilution; listed as Quin/dal
[12] = system: Porphyromonas gingivalis; test: Agar dilution MIC, anaerobes; assay type: cell-based; conditions: single isolate, anaerobic agar dilution
[13] = system: Fusobacterium varium; test: Agar dilution MIC, anaerobes; assay type: cell-based; conditions: single isolates, anaerobic agar dilution
[14] = system: P. acnes; test: Agar dilution MIC, anaerobes; assay type: cell-based; conditions: single isolates, anaerobic agar dilution
[15] = system: Peptostreptococcus magnum; test: Agar dilution MIC, anaerobes; assay type: cell-based; conditions: single isolates, anaerobic agar dilution
[16] = system: Peptostreptococcus micros; test: Agar dilution MIC, anaerobes; assay type: cell-based; conditions: single isolates, anaerobic agar dilution; listed as Quin/dal
[17] = system: Peptostreptococcus tetradius; test: Agar dilution MIC, anaerobes; assay type: cell-based; conditions: single isolates, anaerobic agar dilution
[18] = system: Peptostreptococcus prevotii; test: Agar dilution MIC, anaerobes; assay type: cell-based; conditions: single isolates, anaerobic agar dilution
[19] = system: Eubacterium leutum; test: Agar dilution MIC, anaerobes; assay type: cell-based; conditions: single isolates, anaerobic agar dilution
[20] = system: Fusobacterium necrogenes; test: Agar dilution MIC, anaerobes; assay type: cell-based; conditions: single isolate, anaerobic agar dilution
[21] = system: MRSE 879; test: Broth MIC, MRSE 879; assay type: cell-based; conditions: MRSE 879
[22] = system: MRSE 879 adherent bacteria; test: Sintered glass adherent bacteria model; conditions: MRSE 879, sintered glass adherent bacteria model
[23] = Changes in MIC under different conditions: agar MIC; assay type: cell-based; conditions: strain not given
[24] = Changes in MIC under different conditions: broth MIC; assay type: cell-based; conditions: strain not given
[25] = system: MRSA 562; test: In vivo activity against MRSA 562 (ED50); parameters: species or system Methicillin Resistant Staphylococcus aureus; conditions: PO; MRSA 562 infection
[26] = system: S. aureus ATCC 25923; test: MIC, agar incorporation method; conditions: agar incorporation
[27] = system: MRSA 15187; test: MIC, agar incorporation method; conditions: agar incorporation
[28] = system: MRSA 562; test: MIC, agar incorporation method; conditions: for MIC: MRSA 562, Table 5; for MIC MRSA 562: agar incorporation, Table 1
[29] = system: MRSA 33; test: MIC, agar incorporation method; conditions: agar incorporation
[30] = system: Ent. faecalis ATCC 29212; test: MIC, agar incorporation method; conditions: agar incorporation
[31] = system: VRE 6A (Ent. faecium 6A); test: MIC, agar incorporation method; conditions: agar incorporation
[32] = system: Strep. pyog. ATCC 19615; test: MIC, agar incorporation method; conditions: agar incorporation
[33] = system: Strep. pne. ATCC 6303; test: MIC, agar incorporation method; conditions: agar incorporation
[34] = system: S. pneum AB 34; test: MIC, agar incorporation method; conditions: agar incorporation
[35] = system: G +ve bacteria; test: Summary of in vitro activity (MIC); conditions: for MIC50 / MIC90: G +ve, Number 49
[36] = system: S. aureus; test: Summary of in vitro activity (MIC); conditions: S. aureus; for MIC50 / MIC90: Number 8
[37] = system: E. faecalis; test: Summary of in vitro activity (MIC); conditions: E. faecalis; for MIC50 / MIC90: Number 7
[38] = system: S. pneumoniae; test: Summary of in vitro activity (MIC); conditions: S. pneumoniae; for MIC50 / MIC90: Number 19

Synercid
Geometric Mean [1]: 1.614 µg/mL
MIC Range [1]: 0.062 to 16 µg/mL
MIC50 ([1]; Wilkins Chalgren agar, 48 hour): 1 µg/mL
MIC90 ([1]; Wilkins Chalgren agar, 48 hour): 16 µg/mL
MIC Clostridium camis [2]: 0.5 µg/mL
MIC Clostridium perfringens [3]: 0.5 µg/mL
MIC Clostridium difficile [4]: 0.5 µg/mL
MIC Bacteroides fragilis [5]: 8 µg/mL and >8 µg/mL
MIC Prevotella (Bacteroides) disiens [6]: >8 µg/mL and 8 µg/mL
MIC Prevotella bivia [7]: 2 µg/mL
MIC Prevotella intermedia [8]: 0.25 µg/mL
MIC Prevotella melaninogenica [9]: 1 µg/mL and 2 µg/mL
MIC Porphyromonas asaccharolytica [10]: <=.125 μg/ml
MIC Fusobacterium montiferum [11]: 8 µg/mL and >8 µg/mL and 4 µg/mL
MIC Porphyromonas gingivalis [12]: 0.25 µg/mL
MIC Fusobacterium varium [13]: >8 µg/mL
MIC P. acnes [14]: <=.125 μg/ml
MIC Peptostreptococcus magnum [15]: 0.25 µg/mL
MIC Peptostreptococcus micros [16]: 0.5 µg/mL and 1 µg/mL
MIC Peptostreptococcus tetradius [17]: 1 µg/mL
MIC Peptostreptococcus prevotii [18]: 0.25 µg/mL
MIC Eubacterium leutum [19]: 0.25 µg/mL
MIC Fusobacterium necrogenes [20]: 0.25 µg/mL
broth MIC [21]: 0.5 µg/mL
concentration which would kill adherent bacteria [22]: 2 µg/mL

CC(=O)NC[C@H]1CN(c2ccc(N3CCC(N(C)C(=O)c4ccc([N+](=O)[O-])o4)CC3)c(F)c2)C(=O)O1 [Compound No. 44]
Agar MIC [23]: <0.1 µg/mL
Broth MIC +50% Sheep serum [24]: 0.25 µg/mL
Broth MIC Normal MH broth [24]: <0.1 µg/mL
ED50 (mg/kg body weight) PO [25]: >25 mg/kg body weight
MIC S. aureus 25923 [26]: 0.25 µg/mL (≈ 0.497 µM)
MIC MRSA 15187 [27]: <0.1 µg/mL
MIC [28]: <0.1 µg/mL
MIC MRSA 562 [28]: <0.1 µg/mL
MIC MRSA 33 [29]: <0.1 µg/mL
MIC E. faecalis 29212 [30]: 0.25 µg/mL (≈ 0.497 µM)
MIC VRE 6A [31]: <0.1 µg/mL
MIC S. pyogenes 19615 [32]: 0.5 µg/mL (≈ 0.993 µM)
MIC S. pneum 6303 [33]: 2 µg/mL (≈ 3.97 µM)
MIC S. pneum AB 34 [34]: 2 µg/mL (≈ 3.97 µM)
MIC50 [35]: 0.5 µg/mL (≈ 0.993 µM)
MIC90 [35]: 2 µg/mL (≈ 3.97 µM)
Geometric Mean of in vitro activity (MIC) ([35]; Gram + ve): 0.31 µg/mL
Geometric Mean of in vitro activity (MIC) [36]: 0.11 µg/mL
MIC50 [36]: 0.064 µg/mL (≈ 0.127 µM)
MIC90 [36]: 0.25 µg/mL (≈ 0.497 µM)
Geometric Mean of in vitro activity (MIC) [37]: 0.11 µg/mL
MIC50 [37]: 0.064 µg/mL (≈ 0.127 µM)
MIC90 [37]: 0.25 µg/mL (≈ 0.497 µM)
Geometric Mean of in vitro activity (MIC) [38]: 0.96 µg/mL
MIC50 [38]: 1 µg/mL (≈ 1.99 µM)
MIC90 [38]: 2 µg/mL (≈ 3.97 µM)

CC(=O)NC[C@H]1CN(c2ccc(N3CCN(C(=O)c4ccoc4)CC3)c(F)c2)C(=O)O1 [Compound No. 08, (S)-N[[3-[3-Fluoro-4-[N-1[4-(3-furoyl)]piperazinyl]phenyl]2-oxo-5-oxazolidinyl]-methyl]acetamide]
Agar MIC [23]: 1 µg/mL
Broth MIC +50% Sheep serum [24]: 4 µg/mL
Broth MIC Normal MH broth [24]: 2 µg/mL
ED50 (mg/kg body weight) PO [25]: 25 mg/kg body weight
MIC S. aureus 25923 [26]: 2 µg/mL (≈ 4.65 µM)
MIC MRSA 15187 [27]: 1 µg/mL (≈ 2.32 µM)
MIC [28]: 1 µg/mL (≈ 2.32 µM)
MIC MRSA 562 [28]: 1 µg/mL (≈ 2.32 µM)
MIC MRSA 33 [29]: 1 µg/mL (≈ 2.32 µM)
MIC E. faecalis 29212 [30]: 1 µg/mL (≈ 2.32 µM)
MIC VRE 6A [31]: 1 µg/mL (≈ 2.32 µM)
MIC S. pyogenes 19615 [32]: 1 µg/mL (≈ 2.32 µM)
MIC S. pneum 6303 [33]: 2 µg/mL (≈ 4.65 µM)
MIC S. pneum AB 34 [34]: 4 µg/mL (≈ 9.29 µM)

CC(=O)NC[C@H]1CN(c2ccc(N3CCN(C(=O)c4ccc([N+](=O)[O-])s4)CC3)c(F)c2)C(=O)O1.Cl [Compound No. 29, (S)-N[[3-[3-Fluoro-4-[N-1[4-(5-nitro-2-thienoyl)]piperazinyl]phenyl]2-oxo-5-oxazolidinyl]methyl]acetamide hydrochloride]
Agar MIC [23]: <0.1 µg/mL
Broth MIC +50% Sheep serum [24]: 0.5 µg/mL
Broth MIC Normal MH broth [24]: 0.25 µg/mL
ED50 (mg/kg body weight) PO [25]: >25 mg/kg body weight
MIC S. aureus 25923 [26]: 0.25 µg/mL
MIC MRSA 15187 [27]: <0.1 µg/mL
MIC [28]: <0.1 µg/mL
MIC MRSA 562 [28]: <0.1 µg/mL
MIC MRSA 33 [29]: <0.1 µg/mL
MIC E. faecalis 29212 [30]: 1 µg/mL
MIC VRE 6A [31]: 0.5 µg/mL
MIC S. pyogenes 19615 [32]: 1 µg/mL
MIC S. pneum 6303 [33]: 1 µg/mL
MIC S. pneum AB 34 [34]: 1 µg/mL
MIC50 [35]: 1 µg/mL
MIC90 [35]: 1 µg/mL
MIC50 [36]: 0.064 µg/mL
MIC90 [36]: 0.25 µg/mL
MIC50 [37]: 1 µg/mL
MIC90 [37]: 1 µg/mL
MIC50 [38]: 1 µg/mL
MIC90 [38]: 1 µg/mL
